The values that follow come from US7902361B2, “Pyrimidin-4-yl-3, 4-thione compounds and their use in therapy” (Cyclacel Limited, priority 2003, dated 2011).

The structures appear in SMILES notation.

Type in all cases: biochemical
Assay [1] addresses CDK2/cyclin E (Homo sapiens, UniProt P24941). The assay is described as follows: Kinase assay CDK2/cyclin E. The following applies: Ki calculated (Cheng-Prusoff) from experimentally determined IC50 and Km,ATP; read-out: Kinase Inhibition Ki CDK2 - cyclin E. The protocol: (§1) The compounds from the examples above were investigated for their ability to inhibit the enzymatic activity of various protein kinases. This was achieved by measurement of incorporation of radioactive phosphate from ATP into appropriate polypeptide substrates. Recombinant protein kinases and kinase complexes were produced or obtained commercially. Assays were performed using 96-well plates and appropriate assay buffers (typically 25 mM β-glycerophosphate, 20 mM MOPS, 5 mM EGTA, 1 mM DTT, 1 mM […], pH 7.4), into which were added 2-4 μg of active enzyme with appropriate substrates. […] Reactions were stopped on ice, followed by filtration through p81 filterplates or GF/C filterplates (Whatman Polyfiltronics, Kent, UK). After washing 3 times with 75 mM aq orthophosphoric acid, plates were dried, scintillant added and incorporated radioactivity measured in a scintillation counter (TopCount, Packard Instruments, Pangbourne, Berks, UK). Compounds for kinase assay were made up as 10 mM stocks in DMSO and diluted into 10% DMSO in assay buffer.

Assay [2] concerns the target CDK2/cyclin A (Homo sapiens, UniProt P24941). Put plainly: Kinase assay CDK2/cyclin A. As to conditions: Ki calculated (Cheng-Prusoff) from experimentally determined IC50 and Km,ATP; read-out: Kinase Inhibition Ki CDK2 - cyclin A. The protocol: as §1
The target in assay [3] is T1, GSK3β (Homo sapiens, UniProt P49841).
T1 construct: purchased New England Biolabs
The assay is described as follows: GSK3β in vitro kinase assay. The following applies: recombinant human GSK3β, 100 μM ATP. The protocol:
Both isoforms of GSK3 (α and β) are involved in the regulation of glycogen synthase activity—key enzyme in the glycogen metabolism.
A 10-point titration was set up to determine the IC50 values of selected example compounds against GSK3β. Assays were performed using 96-well microtiter plates with a final volume of 25 μL per well. Each assay contained 1.5 units of GSK3β(New England Biolabs), 200 μM CREB phosphopeptide ([…]pSYR, Alta Biosciences), 20 mM Tris HCl pH7.5, 5 mM DTT, 15 mM MgCl2 supplemented with 100 μM ATP and 0.5 μCi of [γ-^32P] ATP plus or minus inhibitor in 2% DMSO. Assays were carried out for 30 minutes at 30° C. before stopping the reaction by the addition of an equal volume of 75 mM aqueous phosphoric acid. Samples were then spotted onto a p81 filterplate (Whatman) and a vacuum was applied. Wells were washed 3 times with 200 μL of dilute aqueous phosphoric acid before the addition of 50 μL Microscint 40 per well. Incorporation of radioactivity was determined on a Topcount microplate scintillation counter (Packard).

Assay [4] concerns the target CDK9/cyclin T1 (Homo sapiens, UniProt P50750). The assay is described as follows: Kinase assay CDK9/cyclin T1. The following applies: Ki calculated (Cheng-Prusoff) from experimentally determined IC50 and Km,ATP; read-out: Kinase Inhibition Ki CDK9 - cyclin T1. As for the experimental part:
(§2) The compounds from the examples above were investigated for their ability to inhibit the enzymatic activity of various protein kinases. This was achieved by measurement of incorporation of radioactive phosphate from ATP into appropriate polypeptide substrates. Recombinant protein kinases and kinase complexes were produced or obtained commercially. Assays were performed using 96-well plates and appropriate assay buffers (typically 25 mM β-glycerophosphate, 20 mM MOPS, 5 mM EGTA, 1 mM DTT, 1 mM […], pH 7.4), into which were added 2-4 μg of active enzyme with appropriate substrates. The reactions were initiated by addition of Mg/ATP mix (15 mM MgCl2+100 μM ATP with 30-50 kBq per well of [γ-^32P]-ATP) and mixtures incubated as required at 30° C. Reactions were stopped on ice, followed by filtration through p81 filterplates or GF/C filterplates (Whatman Polyfiltronics, Kent, UK). After washing 3 times with 75 mM aq orthophosphoric acid, plates were dried, scintillant added and incorporated radioactivity measured in a scintillation counter (TopCount, Packard Instruments, Pangbourne, Berks, UK). Compounds for kinase assay were made up as 10 mM stocks in DMSO and diluted into 10% DMSO in assay buffer.

Assay [5] addresses CDK7/cyclin H (Homo sapiens, UniProt P50613). Put plainly: Kinase assay CDK7/cyclin H. The following applies: Ki calculated (Cheng-Prusoff) from experimentally determined IC50 and Km,ATP; read-out: Kinase Inhibition Ki CDK7 - cyclin H. As for the experimental part: as §2
Assay [6] addresses CDK1/cyclin B (Homo sapiens, UniProt P06493). The assay is described as follows: Kinase assay CDK1/cyclin B (radioactive phosphate incorporation). As to conditions: Ki calculated (Cheng-Prusoff) from experimentally determined IC50 and Km,ATP; read-out: Kinase Inhibition Ki CDK1 - cyclin B. As for the experimental part:
as §1

The target of assay [7] is CDK4/cyclin D1 (Homo sapiens, UniProt P11802). The assay is described as follows: Kinase assay CDK4/cyclin D1. The following applies: Ki calculated (Cheng-Prusoff) from experimentally determined IC50 and Km,ATP; read-out: Kinase Inhibition Ki CDK4 - cyclin D1. The protocol:
as §2

Chain of CDK9/cyclin T1 (P50750 whole entry, species assumed): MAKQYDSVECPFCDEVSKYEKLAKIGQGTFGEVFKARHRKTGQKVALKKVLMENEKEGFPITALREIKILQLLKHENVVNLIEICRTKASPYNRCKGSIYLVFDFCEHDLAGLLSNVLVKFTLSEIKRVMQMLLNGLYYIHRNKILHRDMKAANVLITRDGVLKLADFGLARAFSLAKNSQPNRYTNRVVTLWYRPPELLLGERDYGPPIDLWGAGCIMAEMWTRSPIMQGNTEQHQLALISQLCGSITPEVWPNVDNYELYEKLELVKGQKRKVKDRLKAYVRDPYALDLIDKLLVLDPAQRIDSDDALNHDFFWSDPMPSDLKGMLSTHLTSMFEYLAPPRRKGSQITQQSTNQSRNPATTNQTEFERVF
Chain of CDK9/cyclin T1 (O60563 whole entry partner, species assumed): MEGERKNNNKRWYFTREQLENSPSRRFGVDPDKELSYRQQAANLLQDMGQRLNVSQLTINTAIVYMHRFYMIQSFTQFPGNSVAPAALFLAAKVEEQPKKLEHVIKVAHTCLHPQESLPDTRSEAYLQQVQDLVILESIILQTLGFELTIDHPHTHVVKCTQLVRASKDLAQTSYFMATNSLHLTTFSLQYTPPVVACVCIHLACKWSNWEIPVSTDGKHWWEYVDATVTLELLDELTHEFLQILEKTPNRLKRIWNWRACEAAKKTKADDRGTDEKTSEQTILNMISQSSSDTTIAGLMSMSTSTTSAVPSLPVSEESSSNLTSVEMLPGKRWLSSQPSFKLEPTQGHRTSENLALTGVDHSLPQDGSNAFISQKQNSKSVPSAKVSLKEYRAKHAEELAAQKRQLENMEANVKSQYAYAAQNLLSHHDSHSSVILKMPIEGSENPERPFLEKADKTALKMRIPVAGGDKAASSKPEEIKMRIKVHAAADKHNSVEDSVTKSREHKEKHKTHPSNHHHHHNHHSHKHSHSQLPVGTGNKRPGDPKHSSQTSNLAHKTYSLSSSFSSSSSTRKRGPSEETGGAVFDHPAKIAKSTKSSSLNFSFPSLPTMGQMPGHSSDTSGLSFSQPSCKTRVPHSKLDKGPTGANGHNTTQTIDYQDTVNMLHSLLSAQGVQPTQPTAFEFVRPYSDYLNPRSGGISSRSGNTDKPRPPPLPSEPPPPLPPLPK
Chain of CDK1/cyclin B (P06493 whole entry, species assumed): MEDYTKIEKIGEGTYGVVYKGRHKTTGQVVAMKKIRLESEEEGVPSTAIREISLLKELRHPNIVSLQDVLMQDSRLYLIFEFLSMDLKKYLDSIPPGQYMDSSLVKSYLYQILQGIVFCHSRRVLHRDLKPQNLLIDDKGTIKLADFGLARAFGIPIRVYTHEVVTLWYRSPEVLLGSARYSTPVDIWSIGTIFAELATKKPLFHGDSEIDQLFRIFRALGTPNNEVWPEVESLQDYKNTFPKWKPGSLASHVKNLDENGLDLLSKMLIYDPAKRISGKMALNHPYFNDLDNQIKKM
Chain of CDK1/cyclin B (P14635 whole entry partner, species assumed): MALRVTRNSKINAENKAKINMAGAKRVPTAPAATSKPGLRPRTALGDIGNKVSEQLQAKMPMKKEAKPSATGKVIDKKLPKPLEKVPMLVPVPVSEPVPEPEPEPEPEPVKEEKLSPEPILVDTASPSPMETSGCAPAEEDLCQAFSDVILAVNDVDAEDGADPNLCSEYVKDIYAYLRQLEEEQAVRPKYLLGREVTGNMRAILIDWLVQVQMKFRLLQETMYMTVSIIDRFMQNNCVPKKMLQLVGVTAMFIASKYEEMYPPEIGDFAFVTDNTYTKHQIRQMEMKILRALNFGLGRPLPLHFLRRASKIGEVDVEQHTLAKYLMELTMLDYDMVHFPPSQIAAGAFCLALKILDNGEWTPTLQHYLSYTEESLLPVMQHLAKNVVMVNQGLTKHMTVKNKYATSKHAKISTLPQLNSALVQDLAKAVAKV
T1 sequence (P49841 whole entry): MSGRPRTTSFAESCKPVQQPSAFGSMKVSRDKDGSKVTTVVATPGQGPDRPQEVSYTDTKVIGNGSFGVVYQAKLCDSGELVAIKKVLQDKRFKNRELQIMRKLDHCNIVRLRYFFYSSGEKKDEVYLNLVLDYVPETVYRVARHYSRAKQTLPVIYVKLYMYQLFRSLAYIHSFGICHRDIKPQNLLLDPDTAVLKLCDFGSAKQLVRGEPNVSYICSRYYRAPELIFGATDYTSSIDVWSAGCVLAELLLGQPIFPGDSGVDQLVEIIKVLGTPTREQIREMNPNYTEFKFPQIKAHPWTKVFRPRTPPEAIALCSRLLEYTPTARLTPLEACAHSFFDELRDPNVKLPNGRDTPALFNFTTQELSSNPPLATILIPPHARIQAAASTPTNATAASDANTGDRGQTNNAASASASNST
Chain of CDK7/cyclin H (P50613 whole entry, species assumed): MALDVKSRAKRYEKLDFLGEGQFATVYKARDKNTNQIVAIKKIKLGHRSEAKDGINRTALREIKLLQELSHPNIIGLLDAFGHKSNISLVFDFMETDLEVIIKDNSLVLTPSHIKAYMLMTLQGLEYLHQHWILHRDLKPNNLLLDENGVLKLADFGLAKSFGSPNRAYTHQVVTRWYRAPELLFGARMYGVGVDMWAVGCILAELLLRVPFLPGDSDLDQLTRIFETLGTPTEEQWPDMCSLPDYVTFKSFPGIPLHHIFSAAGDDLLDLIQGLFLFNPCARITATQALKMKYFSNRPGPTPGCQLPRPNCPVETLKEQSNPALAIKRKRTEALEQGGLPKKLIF
Chain of CDK7/cyclin H (P51946 whole entry partner, species assumed): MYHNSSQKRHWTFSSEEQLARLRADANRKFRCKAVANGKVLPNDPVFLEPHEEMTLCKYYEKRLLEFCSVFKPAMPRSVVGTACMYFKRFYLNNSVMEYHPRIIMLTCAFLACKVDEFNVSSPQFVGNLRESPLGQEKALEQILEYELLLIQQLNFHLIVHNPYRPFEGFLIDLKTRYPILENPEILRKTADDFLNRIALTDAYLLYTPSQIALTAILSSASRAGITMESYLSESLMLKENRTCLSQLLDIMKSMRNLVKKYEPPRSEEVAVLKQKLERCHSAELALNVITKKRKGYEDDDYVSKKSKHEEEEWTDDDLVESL
Chain of CDK4/cyclin D1 (P11802 whole entry, species assumed): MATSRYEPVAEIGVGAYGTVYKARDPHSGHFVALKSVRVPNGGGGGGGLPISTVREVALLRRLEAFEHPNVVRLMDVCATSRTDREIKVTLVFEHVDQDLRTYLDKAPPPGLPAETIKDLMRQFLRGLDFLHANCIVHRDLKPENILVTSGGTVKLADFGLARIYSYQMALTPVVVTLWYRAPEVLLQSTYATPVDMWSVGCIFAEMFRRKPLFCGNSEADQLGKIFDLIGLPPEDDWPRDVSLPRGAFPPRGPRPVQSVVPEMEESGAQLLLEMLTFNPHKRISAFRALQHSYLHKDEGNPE
Chain of CDK4/cyclin D1 (P24385 whole entry partner, species assumed): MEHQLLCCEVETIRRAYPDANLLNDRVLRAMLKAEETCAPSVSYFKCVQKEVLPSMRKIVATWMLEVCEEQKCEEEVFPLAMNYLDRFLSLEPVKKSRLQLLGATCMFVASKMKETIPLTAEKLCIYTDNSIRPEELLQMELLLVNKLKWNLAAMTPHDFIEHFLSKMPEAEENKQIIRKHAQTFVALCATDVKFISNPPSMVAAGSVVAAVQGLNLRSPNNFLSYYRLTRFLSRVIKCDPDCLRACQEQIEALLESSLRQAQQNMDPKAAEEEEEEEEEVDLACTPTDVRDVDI

Consider `CCn1c(C)c(-c2ccnc(Nc3ccc(S(=O)(=O)O)cc3)n2)sc1=O` [Compound 53, 4-[4-(3-Ethyl-4-methyl-2-oxo-2,3-dihydro-thiazol-5-yl)-pyrimidin-2-ylamino]-benzenesulfonic acid], for which the Ki (in general, a dissociation constant, usually derived from enzyme kinetics or from competition with a known ligand) in assay [1] is 180 nM; in assay [2], 590 nM. Also, the IC50 (in general, the concentration that inhibits the measured activity by half) in assay [3] came out at 43.5 nM.

`CC(=O)N1CCN(c2ccc(Nc3nccc(-c4sc(=O)n(C)c4C)n3)cc2)CC1` [Compound 17, 5-{2-[4-(4-Acetyl-piperazin-1-yl)-phenylamino]-pyrimidin-4-yl}-3,4-dimethyl-3H-thiazol-2-one]: the Ki in assay [1] is 260 nM; in assay [4], 77 nM; in assay [2], 180 nM; in assay [5] it was 510 nM; in assay [6] it was 6900 nM; in assay [7], 190 nM.

`Cc1c(-c2ccnc(Nc3ccc(S(=O)(=O)NCc4ccccc4)cc3)n2)sc(=O)n1C` [Compound 73, N-Benzyl-4-[4-(3,4-dimethyl-2-oxo-2,3-dihydro-thiazol-5-yl)-pyrimidin-2-ylamino]-benzenesulfonamide]: the Ki was 80 nM in assay [1], 380 nM in assay [4], 650 nM in assay [2] and 1100 nM in assay [6]. In addition, the IC50 in assay [3] amounted to 66.5 nM.

In the case of `CCn1c(C)c(-c2ccnc(Nc3cccc(O)c3)n2)sc1=O` [Compound 43, 3-Ethyl-5-[2-(3-hydroxy-phenylamino)-pyrimidin-4-yl]-4-methyl-3H-thiazol-2-one], the Ki was 2 nM in assay [1], 19 nM in assay [5] and 130 nM in assay [7]. Further, the IC50 in assay [3] was 41.5 nM.

`Cc1c(-c2ccnc(Nc3cccc([N+](=O)[O-])c3)n2)sc(=O)n1CCC(C)C` [Compound 30, 4-Methyl-3-(3-methyl-butyl)-5-[2-(3-nitro-phenylamino)-pyrimidin-4-yl]-3H-thiazol-2-one]: the Ki was 290 nM in assay [1]; 190 nM in assay [4]; 560 nM in assay [2]; 31 nM in assay [5]; 670 nM in assay [6]; 21000 nM in assay [7].

With `CCn1c(C)c(-c2ccnc(Nc3cccc(S(=O)(=O)O)c3)n2)sc1=O` [Compound 54, 3-[4-(3-Ethyl-4-methyl-2-oxo-2,3-dihydro-thiazol-5-yl)-pyrimidin-2-ylamino]-benzenesulfonic acid], the IC50 in assay [3] was determined as 158 nM.

Consider `CCn1c(C)c(-c2ccnc(Nc3ccc(N(C)C)cc3)n2)sc1=O` [Compound 26, 5-[2-(4-Dimethylamino-phenylamino)-pyrimidin-4-yl]-3-ethyl-4-methyl-3H-thiazol-2-one], for which the Ki in assay [1] was 290 nM; in assay [4], 690 nM; in assay [2], 150 nM; in assay [5], 220 nM; in assay [6], 7000 nM; in assay [7], 280 nM.

As to `CC(=O)NCc1cccc(Nc2nccc(-c3sc(=O)n(C)c3C)n2)c1` [Compound 42, N-{3-[4-(3,4-Dimethyl-2-oxo-2,3-dihydro-thiazol-5-yl)-pyrimidin-2-ylamino]-benzyl}-acetamide], the Ki in assay [1] was 34 nM; in assay [4], 19 nM; in assay [2] it was 220 nM; in assay [5] it was 380 nM; in assay [6] it was 580 nM; in assay [7], 770 nM. In assay [3], the IC50 came to 38.5 nM.

Take `Cc1c(-c2ccnc(Nc3ccc(N(C)C)cc3)n2)sc(=O)n1C` [Compound 8, 5-[2-(4-Dimethylamino-phenylamino)-pyrimidin-4-yl]-3,4-dimethyl-3H-thiazol-2-one]: the inhibitory constant (Ki) in assay [1] is 750 nM; in assay [4], 41 nM; in assay [2], 200 nM; in assay [5], 860 nM; in assay [6], 750 nM; in assay [7] it was 530 nM.

With `CCn1c(C)c(-c2ccnc(Nc3ccc(Cl)c(C)c3)n2)sc1=O` [Compound 51, 5-[2-(4-Chloro-3-methyl-phenylamino)-pyrimidin-4-yl]-3-ethyl-4-methyl-3H-thiazol-2-one], the inhibition constant Ki in assay [1] was 270 nM; in assay [4] it was 190 nM; in assay [5], 970 nM; in assay [6], 2100 nM. Further, the IC50 in assay [3] amounted to 542 nM.

`CCn1c(C)c(-c2ccnc(Nc3ccc(Cl)c(C(F)(F)F)c3)n2)sc1=O` [Compound 48, 5-[2-(4-Chloro-3-trifluoromethyl-phenylamino)-pyrimidin-4-yl]-3-ethyl-4-methyl-3H-thiazol-2-one]: the Ki in assay [4] was 230 nM. The IC50 in assay [3] amounted to 61.9 nM.

Take `Cc1ccc(Nc2nccc(-c3sc(=O)[nH]c3C)n2)cc1[N+](=O)[O-]` [Compound 41, 4-Methyl-5-[2-(4-methyl-3-nitro-phenylamino)-pyrimidin-4-yl]-3H-thiazol-2-one]: the Ki is 12 nM in assay [1]; 8.9 nM in assay [4]; 23 nM in assay [2]; 290 nM in assay [5]; 49 nM in assay [6]; 130 nM in assay [7].

In the case of `Cc1ccc(Nc2nccc(-c3sc(=O)n(C)c3C)n2)cc1N` [Compound 39, 5-[2-(3-Amino-4-methyl-phenylamino)-pyrimidin-4-yl]-3,4-dimethyl-3H-thiazol-2-one], the Ki in assay [1] was 98 nM; in assay [4] it was 14 nM; in assay [2], 8.6 nM; in assay [5], 600 nM; in assay [6] it was 64 nM; in assay [7] it was 150 nM.

Regarding `Cc1c(-c2ccnc(Nc3ccc(N4CCN(C)CC4)cc3)n2)sc(=O)n1C` [Compound 13, 3,4-Dimethyl-5-{2-[4-(4-methyl-piperazin-1-yl)-phenylamino]-pyrimidin-4-yl}-3H-thiazol-2-one], the Ki in assay [1] was 530 nM; in assay [4], 93 nM; in assay [2], 230 nM; in assay [5] it was 170 nM; in assay [6] it was 1500 nM; in assay [7], 270 nM.

For `Cc1c(-c2ccnc(Nc3ccc(Cl)c(CO)c3)n2)sc(=O)n1C` [Compound 18, 5-[2-(4-Chloro-3-hydroxymethyl-phenylamino)-pyrimidin-4-yl]-3,4-dimethyl-3H-thiazol-2-one], the Ki in assay [1] is 28 nM; in assay [4], 1.2 nM; in assay [2], 59 nM; in assay [5], 28 nM; in assay [6], 22 nM; in assay [7], 170 nM.

For the compound `Cc1[nH]c(=O)sc1-c1ccnc(Nc2cccc([N+](=O)[O-])c2)n1` [Compound 40, 4-Methyl-5-[2-(3-nitro-phenylamino)-pyrimidin-4-yl]-3H-thiazol-2-one], the Ki in assay [1] was 3.2 nM; in assay [4] it was 2.4 nM; in assay [2], 11 nM; in assay [5] it was 71 nM; in assay [6], 17 nM; in assay [7], 230 nM.
